Legend:
[1] = tested on: C2C12 skeletal muscle cells; assay: Glycogen content assay in C2C12 myotubes; format: cell-based; settings: 30 minutes
Procedure: The C2C12 skeletal muscle cells were cultured in Dulbecco's modified Eagle's medium (DMEM; Gibco/Invitrogen, Carlsbad, Calif.), and the human hepatocellular carcinoma cell line, Hep3B, was cultured in Roswell Park Memorial Institute medium 1640 (RPMI 1640 medium; Gibco/Invitrogen, Carlsbad, Calif.). Cells were cultured at 37° C. in the humidified incubator supplied with 5% CO2. Culture mediums were supplemented with 4.5 mgmL^−1 glucose, penicillin 100 IUmL^−1, streptomycin 100 μgmL^−1 and 10% fetal bovine serum (Gibco/Invitrogen, Carlsbad, Calif.). Only C2C12 cells were then switched to 2% horse serum for 3 days after reaching the 70% confluence. Myotubes formation was achieved after 4 days of incubation, and the cells were used for subsequent experiments. Culture mediums were replaced by serum free DMEM or RPMI for 24 h before experiments (see e.g., procedure described in Sultan et al., 2006).
C2C12 and Hep3B cells were treated with 1 nM insulin, 100 μM metformin, and the assigned concentration of borapetoside A for 30 minutes. To develop the insulin resistance state of cells, C2C12 cells were incubated with IL-6 at 20 ngmL^−1 for 1 hour. Later, the cells were treated with 1 nM insulin, 100 μM metformin, and the assigned concentration of borapetoside A for 30 minutes. After the assigned treatment, cells were washed twice with phosphate buffered saline (PBS). Glycogen content was measured as previously described, with some modifications (see e.g., Savage et al., 2008). The protein concentrations of the cell lysates were determined by using Pierce BCA Protein Assay Kit (Thermo-Scientific, Rockford, Ill.). The glycogen content of each sample was normalized by total protein.

[2] = tested on: normal, T1DM and T2DM mice; assay: Plasma insulin levels before and after treatment; format: in vivo, ICR mice
Procedure: The 4-week-old male ICR mice were purchased from the Animal Center of the College of Medicine, National Taiwan University (Taipei, Taiwan) with delicate humane care. This animal study was conducted by following the University ethical guidelines and the ‘Guide for the Care and Use of Laboratory Animals’ published by the US National Institutes of Health (NIH publication no. 85-23, revised 1996). The animal experiments were approved by the Institutional Animal Care and Use Committee (IACUC) of the National Taiwan University (IACUC No. 20110073). Animals were housed in a room at the constant temperature, 22±1° C., with 12 hours light and dark cycles.
After three days of acclimatization, the mice had free access to a standard rodent chow (normal mice), a standard rodent chow after single […] streptozotocin (STZ) intraperitoneal injection (T1DM mice), and a fat-rich chow diet and fructose-sweetened water (T2DM mice) for 4 weeks. The induction of Type 1 DM was assessed and confirmed when the mice had plasma glucose levels ≧350 mgdL^−1, accompanied with polyuria, hyperphagia and decreased body weight. The induction Type 2 DM in the mice was assessed by measuring fasting plasma glucose levels and confirmed when plasma glucose level was ≧150 mgdL^−1 after the 4-week induction. The animals were assigned randomly into three groups, with seven animals in each group. In group I, the mice were treated with vehicle, 2% DMSO in normal saline, as the negative control. In group II, the mice were intraperitoneally treated with borapetoside A (0.1-10 mgkg^−1). In group Ill, the positive control, the mice received intraperitoneally metformin (300 mgkg^−1; Sigma Chemical Co., St. Louis, Mo., U.S.A.) or insulin (0.5 IUkg^−1; Insulin Actrapid® HM; Novo Nordisk, Denmark). In the acute study, mice under anesthesia received a single intraperitoneal administration of borapetoside A, negative control, or positive control. In the subacute study, mice received intraperitoneal administrations of borapetoside A, vehicle, or insulin twice a day for seven days.
Blood samples were collected from the orbital vascular plexus of the mice under anesthesia. Blood samples were then centrifuged at 13000 rpm for 5 min, and the plasma samples were collected and kept on ice prior to the assay. The plasma glucose concentration was measured by Glucose Kit Reagent (Biosystems S. A., Barcelona, Spain) following the manufacturer's instructions, and the insulin levels were estimated using mouse insulin ELISA kit (Mercodia AB, Uppsala, Sweden).

[3] = tested on: non-diabetic, T1DM and T2DM mice; assay: Plasma glucose after bolus intraperitoneal borapetoside C; format: in vivo, ICR mice
Procedure: T1DM mice were induced by a known method. In brief, an intraperitoneal injection of streptozotocin (STZ; Sigma Chemical Co.; St. Louis, Mo.) at 150 mg/kg was performed in mice that were fasted for 48 h. The induction of T1DM was assessed and confirmed when the mice had plasma glucose levels ≧350 mg/dL, accompanied with polyuria, hyperphagia and decreased body weight. The control mice group received an injection of vehicle and then carried out for 4 weeks. T2DM mice were induced by maintaining on a fat-rich chow diet and fructose-sweetened water for 4 weeks from the age of 4-5 weeks according to previous methods. The induction T2DM mice were assessed by measuring fasting plasma glucose levels and confirmed when plasma glucose level was ≧150 mg/dL after a 4-week induction.
Blood samples were collected from the orbital vascular plexus of mice under anesthesia with sodium pentobarbital (80 mg/kg, intraperitoneal, Sigma Chemical Co., St. Louis, Mo., USA). Blood samples were then centrifuged at 13000 rpm for 5 min, and the plasma was kept on ice prior to the assay. The plasma glucose concentration was measured using commercial kits following manufacturer's instructions (BioSystems S. A., Barcelona, Spain).

With `C[C@@]12C[C@@H](c3ccoc3)OC(=O)[C@@H]1C[C@@H]1OC(=O)[C@@]3(O)[C@@H](O[C@@H]4O[C@H](CO)[C@@H](O)[C@H](O)[C@H]4O)CC[C@@H]2[C@@]13C` [Borapetoside A, borapetoside A] the “fold increase of glycogen” value ([1]; 10^−6 mol/L) was 1.49±0.15 fold, the “fold increase of glycogen” value ([1]; 10^−7 mol/L) was 1.28±0.04 fold and the “fold increase of glycogen” value ([1]; 10^−8 mol/L) was 1.53±0.10 fold. The “Plasma insulin Before-treatment” value ([2]; Normal mice, 0.1 mg kg^−1 group) was 61.0 ± 4.6 pmol/L, the “Plasma insulin After-treatment” value ([2]; Normal mice, 0.1 mg kg^−1 i.p.) was 68.3 ± 4.4 pmol/L and the “Plasma insulin Before-treatment” value ([2]; Normal mice, 0.3 mg kg^−1 group) was 63.4 ± 3.9 pmol/L. The “Plasma insulin After-treatment” value ([2]; Normal mice, 0.3 mg kg^−1 i.p.) was 129.4 ± 22.0 pmol/L, the “Plasma insulin Before-treatment” value ([2]; Normal mice, 1 mg kg^−1 group) was 66.1 ± 5.4 pmol/L and the “Plasma insulin After-treatment” value ([2]; Normal mice, 1 mg kg^−1 i.p.) was 118.8 ± 10.1 pmol/L. For the same compound, the “Plasma insulin Before-treatment” value ([2]; Normal mice, 3 mg kg^−1 group) was 64.4 ± 3.6 pmol/L, the “Plasma insulin After-treatment” value ([2]; Normal mice, 3 mg kg^−1 i.p.) was 121.2 ± 14.2 pmol/L and the “Plasma insulin Before-treatment” value ([2]; Normal mice, 10 mg kg^−1 group) was 68.9 ± 1.3 pmol/L. The “Plasma insulin After-treatment” value ([2]; Normal mice, 10 mg kg^−1 i.p.) was 108.2 ± 2.9 pmol/L, the “Plasma insulin Before-treatment” value ([2]; T1DM mice, 0.1 mg kg^−1 group) was 22.9 ± 0.1 pmol/L and the “Plasma insulin After-treatment” value ([2]; T1DM mice, 0.1 mg kg^−1 i.p.) was 22.7 ± 0.2 pmol/L. For the same compound, the “Plasma insulin Before-treatment” value ([2]; T1DM mice, 0.3 mg kg^−1 group) was 22.9 ± 0.1 pmol/L, the “Plasma insulin After-treatment” value ([2]; T1DM mice, 0.3 mg kg^−1 i.p.) was 22.7 ± 0.3 pmol/L and the “Plasma insulin Before-treatment” value ([2]; T1DM mice, 1 mg kg^−1 group) was 23.1 ± 0.2 pmol/L. For the same compound, the “Plasma insulin After-treatment” value ([2]; T1DM mice, 1 mg kg^−1 i.p.) was 23.0 ± 0.2 pmol/L, the “Plasma insulin Before-treatment” value ([2]; T1DM mice, 3 mg kg^−1 group) was 23.1 ± 0.2 pmol/L and the “Plasma insulin After-treatment” value ([2]; T1DM mice, 3 mg kg^−1 i.p.) was 23.0 ± 0.0 pmol/L. The “Plasma insulin Before-treatment” value ([2]; T1DM mice, 10 mg kg^−1 group) was 23.1 ± 0.1 pmol/L, the “Plasma insulin After-treatment” value ([2]; T1DM mice, 10 mg kg^−1 i.p.) was 23.0 ± 0.1 pmol/L and the “Plasma insulin Before-treatment” value ([2]; T2DM mice, 0.1 mg kg^−1 group) was 140.5 ± 4.1 pmol/L. For the same compound, the “Plasma insulin After-treatment” value ([2]; T2DM mice, 0.1 mg kg^−1 i.p.) was 134.5 ± 9.3 pmol/L, the “Plasma insulin Before-treatment” value ([2]; T2DM mice, 0.3 mg kg^−1 group) was 133.0 ± 4.2 pmol/L and the “Plasma insulin After-treatment” value ([2]; T2DM mice, 0.3 mg kg^−1 i.p.) was 149.0 ± 9.5 pmol/L. For the same compound, the “Plasma insulin Before-treatment” value ([2]; T2DM mice, 1 mg kg^−1 group) was 126.8 ± 5.7 pmol/L, the “Plasma insulin After-treatment” value ([2]; T2DM mice, 1 mg kg^−1 i.p.) was 123.7 ± 9.6 pmol/L and the “Plasma insulin Before-treatment” value ([2]; T2DM mice, 3 mg kg^−1 group) was 138.3 ± 3.6 pmol/L. The “Plasma insulin After-treatment” value ([2]; T2DM mice, 3 mg kg^−1 i.p.) was 184.3 ± 14.6 pmol/L, the “Plasma insulin Before-treatment” value ([2]; T2DM mice, 10 mg kg^−1 group) was 134.9 ± 3.5 pmol/L and the “Plasma insulin After-treatment” value ([2]; T2DM mice, 10 mg kg^−1 i.p.) was 205.3 ± 22.2 pmol/L.

With `COC(=O)C1=CCC[C@H]2[C@]3(C)C[C@@H](c4ccoc4)OC(=O)[C@@H]3C[C@@H](O[C@@H]3O[C@H](CO)[C@@H](O)[C@H](O)[C@H]3O)[C@@]12C` [Borapetoside C, borapetoside C] the plasma glucose concentrations ([3]; bolus i.p. 0.5 to 5 mg/kg, non-diabetic, T1DM and T2DM mice) was “significantly lowered plasma glucose concentrations in a dose-dependent manner” and the plasma glucose levels ([3]; borapetoside C at 0.1 mg/kg alone) was “did not alter the plasma glucose levels”.

Source: patent US20150265682A1, “THERAPEUTIC METHODS AND COMPOSITIONS FOR TREATING DIABETES” (Orient Europharma Co., Ltd., priority 2014, published 2015)
